What was measured:
[1] = test system: CYP1A2; test: Turnover by recombinantly expressed human cytochrome P450 isoforms; type: in vitro ADME; conditions: 100 pmol/mL enzyme, 37 °C
Description: (§1) S2 Table. In vitro metabolism of TC299423, compared w ith varenicline.
(§2) Human Rat microsomes Turnover by human cytochrome P450 isoforms […]
(§3) The assay mixtures (final incubation volume of 125 μL) in 0.255 M phosphate buffer with 0.575% (w/v) KCl (pH 7.4) contained PiB (1.0 μM), […] a recombinantly expressed cytochrome P450 enzyme preparation (1A2, 2C9, 2C19, 2D6, 3A4, and FMO3) at 100 pmol/mL. After a 10 min preincubation at 37 °C, the reaction was initiated by addition of 2.0 mM NADPH and incubated for 60 min. The reactions were terminated by the addition of two volumes of DMSO. Samples were subsequently centrifuged at 4,000 rpm for 10 min. From the resulting supernatant, 10 μ L was analyzed by liquid chromatography/tandem mass spectrometry (LC-MS/MS). Control experiments were performed by substituting the active enzyme preparation by cell preparations containing no recombinant human CYP. a, Data for clearance are given as μL /min/mg protein. […]
(§4) c, Data for cytochrome P450 turnover and for human flavin- containing monooxygenase 3 (FMO3) are given as percent decline over 60 min.

[2] = test system: CYP2C19; test: as above; type: in vitro ADME; conditions: 100 pmol/mL enzyme, 37 °C
Description: as §1, §2, §3, §4

[3] = test system: CYP2C9; test: as above; type: in vitro ADME; conditions: 100 pmol/mL enzyme, 37 °C
Description: as §1, §2, §3, §4

[4] = test system: CYP2D6; test: as above; type: in vitro ADME; conditions: 100 pmol/mL enzyme, 37 °C
Description: as §1, §2, §3, §4

[5] = test system: CYP3A4; test: as above; type: in vitro ADME; conditions: 100 pmol/mL enzyme, 37 °C
Description: as §1, §2, §3, §4

[6] = test system: male Wistar rats; test: Rat responding for food rewards; type: in vivo; conditions: 0.01, 0.025, 0.05, 0.08 mg/kg ip, 20 min before session
Source text: Operant chambers (Med Associates, East Fairfield, VT, United States) were used for food delivery and the intravenous self-administration (IVSA) of nicotine.
For IV catheter implantation, the rats were anesthetized using 1–3% isoflurane inhalation in oxygen and surgically prepared with catheters in the left jugular vein ([Kenny et al., 2008]). The catheter was passed subcutaneously to a polyethylene assembly mounted on the animals’ back. Prior to training, rats were food-restricted so that their body weight was approximately ∼85% that of free-feeding rats. They were then trained to press an active lever for 45 mg food pellets on a fixed ratio 5 time-out 20 s (FR5TO20) schedule of reinforcement. […] Pressing this lever was recorded but was not associated with scheduled consequence. Rats were permitted to respond for food rewards until a reliable response was achieved, defined as >90 pellets earned per 1 h session for three consecutive sessions. Rats were then permitted to respond for food (n = 8) or for nicotine infusions (n = 9) during 1 h daily sessions under the FR5TO20 schedule. […]
Twenty min after injection, rats were placed in the operant boxes and responding for food rewards or nicotine infusions was recorded. […]

[7] = test system: WT mice; test: Hot plate assay; type: in vivo, mouse; conditions: 0.3 mg/kg ip each, 55°C hot plate, p < 0.05
Description: Mice were again habituated to the experimental room for ≥2 h prior to testing. […] This apparatus is a heated metal plate, maintained at 55°C, enclosed by a clear acrylic plastic cylinder (∼10 cm in diameter), within which the mouse is free to move. […] If the mouse urinates during the assay, it is immediately removed from the hot plate. The time that the mouse remains on the hot plate prior to showing signs of discomfort is recorded. Doses were administered using a Latin-square crossover design. A day without testing occurred between each test.

[8] = test system: WT mice; test: Marble burying assay; type: in vivo, mouse; conditions: 0.3 mg/kg ip
[9] = test system: T1, Adrenergic, Alpha 1B; test: NovaScreen competition binding; conditions: 1 µM
T1 construct: PerkinElmer – Caliper Life Sciences (NovaScreen service)

[10] = test system: Dopamine Transporter; test: NovaScreen competition binding; conditions: 1 µM
[11] = test system: Dopamine, D1 (h); test: NovaScreen competition binding; set-up: species or system human; conditions: 1 µM
[12] = test system: Dopamine, D2s (h); test: NovaScreen competition binding; set-up: species or system human; conditions: 1 µM
[13] = test system: Dopamine, D4.4 (h); test: NovaScreen competition binding; set-up: species or system human; conditions: 1 µM
[14] = test system: T2, Histamine, H2; test: NovaScreen competition binding; conditions: 1 µM
T2 construct: PerkinElmer – Caliper Life Sciences (NovaScreen)

[15] = test system: Muscarinic, M1 (hr); test: NovaScreen competition binding; set-up: species or system human; conditions: 1 µM
[16] = test system: Muscarinic, M3 (h); test: NovaScreen competition binding; set-up: species or system human; conditions: 1 µM
[17] = test system: Opioid, Mu (h); test: NovaScreen competition binding; set-up: species or system human; conditions: 1 µM
[18] = test system: Serotonin, 5HT1D; test: NovaScreen competition binding; conditions: 1 µM
[19] = test system: GABA, Chloride, TBOB Site; test: NovaScreen competition binding; conditions: 1 µM
[20] = test system: Sodium, Site 2; test: NovaScreen competition binding; conditions: 1 µM
[21] = test system: T3, Leukotriene, LTD4 (CysLT1); test: NovaScreen competition binding; conditions: 1 µM
T3 construct: PerkinElmer – Caliper Life Sciences (NovaScreen service)

[22] = target: α4β2* nAChRs (Mus musculus, UniProt O70174+Q9ERK7); test: [125I]epibatidine binding, cortical membranes; set-up: from tissue; host or cells: cortical brain membranes (mouse)
Chain of α4β2* nAChRs (O70174 31-629): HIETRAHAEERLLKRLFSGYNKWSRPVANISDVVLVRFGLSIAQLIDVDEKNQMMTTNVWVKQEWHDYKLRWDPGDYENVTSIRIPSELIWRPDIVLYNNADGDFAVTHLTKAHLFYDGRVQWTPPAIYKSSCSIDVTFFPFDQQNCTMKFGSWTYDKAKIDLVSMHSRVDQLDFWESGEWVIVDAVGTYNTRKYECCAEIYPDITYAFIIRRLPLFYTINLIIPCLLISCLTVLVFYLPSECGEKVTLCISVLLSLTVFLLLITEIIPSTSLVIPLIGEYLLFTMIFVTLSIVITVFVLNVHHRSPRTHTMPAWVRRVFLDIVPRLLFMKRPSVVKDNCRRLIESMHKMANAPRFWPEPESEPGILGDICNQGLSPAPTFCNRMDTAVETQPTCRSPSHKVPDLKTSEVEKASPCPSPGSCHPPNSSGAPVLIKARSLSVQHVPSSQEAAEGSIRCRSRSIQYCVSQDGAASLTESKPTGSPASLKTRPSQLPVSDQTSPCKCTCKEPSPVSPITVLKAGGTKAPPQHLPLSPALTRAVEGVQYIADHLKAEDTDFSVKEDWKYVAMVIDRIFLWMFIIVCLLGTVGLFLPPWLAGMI
Chain of α4β2* nAChRs (Q9ERK7 26-501): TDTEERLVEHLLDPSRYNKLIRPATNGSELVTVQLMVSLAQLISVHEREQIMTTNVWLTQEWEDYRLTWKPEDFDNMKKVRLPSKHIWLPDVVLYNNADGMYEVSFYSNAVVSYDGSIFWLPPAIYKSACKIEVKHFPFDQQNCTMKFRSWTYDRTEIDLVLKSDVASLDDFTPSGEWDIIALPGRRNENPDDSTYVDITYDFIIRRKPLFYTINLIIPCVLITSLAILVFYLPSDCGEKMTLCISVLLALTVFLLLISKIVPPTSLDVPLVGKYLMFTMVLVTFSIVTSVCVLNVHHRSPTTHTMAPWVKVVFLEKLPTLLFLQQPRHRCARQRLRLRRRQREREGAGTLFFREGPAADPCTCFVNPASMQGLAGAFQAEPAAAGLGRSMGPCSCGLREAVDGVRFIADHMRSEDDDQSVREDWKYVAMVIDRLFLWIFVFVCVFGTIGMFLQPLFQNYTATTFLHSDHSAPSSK
Description: Brain membrane preparations were stored as pellets under buffer at -70°C or used immediately.

**Q.** Which “Turnover by CYP1A2” value [1] does the source give for `C1=C(/c2cncnc2)CCCNCC/1` [TC299423, (E)-5-(pyrimidin-5-yl)-1,2,3,4,7,8-hexahydroazocine] here?
**A.** Its value is 3 percent decline over 60 min.

**Q.** And the “Turnover by CYP2C19” value [2]?
**A.** Its value is 4 percent decline over 60 min.

**Q.** And the “Turnover by CYP2C9” value [3]?
**A.** Its value is 8 percent decline over 60 min.

**Q.** And the “Turnover by CYP2D6” value [4]?
**A.** Its value is 42 percent decline over 60 min.

**Q.** And the “Turnover by CYP3A4” value [5]?
**A.** The value was 7 percent decline over 60 min.

**Q.** What about the “Responding for food pellets vs vehicle” value [6] of the same compound?
**A.** The value was “no statistically significant changes”.

**Q.** What about the “Antinociceptive effect compared with varenicline” value [7] of the same compound?
**A.** Its value is “significantly greater than that of varenicline”.

**Q.** What about the “Marbles buried compared with saline” value [8] of the same compound?
**A.** The value was “significantly fewer marbles”.

**Q.** What about the “Marbles buried compared with varenicline” value ([8]; p < 0.001) of the same compound?
**A.** Its value is “fewer marbles”.

**Q.** What about the Hit [9] of the same compound?
**A.** The Hit was “FALSE”.

**Q.** And the Inhibition ([9]; [3H]-7-MeOxy-Prazosin)?
**A.** The Inhibition was -8.31%.

**Q.** And the Hit [10]?
**A.** The Hit was “FALSE”.

**Q.** And the Inhibition ([10]; [3H]WIN 35,428)?
**A.** Its Inhibition is -5.87%.

**Q.** And the Hit [11]?
**A.** Its Hit is “FALSE”.

**Q.** What about the Inhibition ([11]; [3H]-SCH23390) of the same compound?
**A.** Its Inhibition is -2.94%.

**Q.** And the Hit [12]?
**A.** Its Hit is “FALSE”.

**Q.** And the Inhibition ([12]; [3H]-Raclopride)?
**A.** Its Inhibition is -21.17%.

**Q.** And the Hit [13]?
**A.** The Hit was “FALSE”.

**Q.** And the Inhibition ([13]; [3H]-YM-09151-2)?
**A.** The Inhibition was -2.44%.

**Q.** And the Hit [14]?
**A.** Its Hit is “FALSE”.

**Q.** What about the Inhibition ([14]; [125I]-Aminopotentidine) of the same compound?
**A.** The Inhibition was 6.50%.

**Q.** And the Hit [15]?
**A.** Its Hit is “FALSE”.

**Q.** What about the Inhibition ([15]; [3H]Scopolamine, N-Methyl) of the same compound?
**A.** Its Inhibition is -11.73%.

**Q.** And the Hit [16]?
**A.** Its Hit is “FALSE”.

**Q.** And the Inhibition ([16]; [3H]Scopolamine, N-Methyl)?
**A.** The Inhibition was -4.77%.

**Q.** And the Hit [17]?
**A.** Its Hit is “FALSE”.

**Q.** And the Inhibition ([17]; [3H]-Diprenorphine)?
**A.** Its Inhibition is -6.43%.

**Q.** What about the Hit [18] of the same compound?
**A.** The Hit was “FALSE”.

**Q.** What about the Inhibition ([18]; [3H]5-CT) of the same compound?
**A.** Its Inhibition is 9.99%.

**Q.** And the Hit [19]?
**A.** The Hit was “FALSE”.

**Q.** What about the Inhibition ([19]; [3H]TBOB) of the same compound?
**A.** The Inhibition was 6.83%.

**Q.** And the Hit [20]?
**A.** Its Hit is “FALSE”.

**Q.** What about the Inhibition ([20]; [3H]Batrachotoxin A 20-a-Benzo) of the same compound?
**A.** The Inhibition was 6.91%.

**Q.** And the Hit [21]?
**A.** The Hit was “FALSE”.

**Q.** What about the Inhibition ([21]; [3H]LTD4) of the same compound?
**A.** The Inhibition was -8.26%.

**Q.** And the Ki ([22]; single component, cortical membranes)?
**A.** Its Ki is 0.24 ± 0.04 nM.

**Q.** What about the “Difference between Ki ([125I]epibatidine) and EC50 ([3H]dopamine release)” value ([22]; α4β2 nAChRs) of the same compound?
**A.** Its value is roughly 500 fold.

From article PMC5626944 (Frontiers in Pharmacology, 2017)
